From patent US20160213003A1, “APPLICATION OF POLYOXOMETALATE IN PREPARATION OF DISINFECTANT FOR STERILIZING AND REMOVING FORMALDEHYDE” (NINGBO YUCHEN ENVIROCLEAN TECH CO., LTD., priority 2013, published 2016)

Tested on: Staphylococcus aureus
Assay: Kirby-Bauer diffusion detection of sterilizing capability (inhibition zone diameter)
Type: cell-based
Details: for sterilization effect without oxygen ventilation (diameter, mm): pH 10, no oxygen ventilation
Description: In catalyst screening, Staphylococcus aureus was used as the microorganisms, and a trypsin soybean agar was used as a culture medium. The material powder to be screened was prepared into a homogeneous mixture solution by pure water in a 3% weight/volume ratio (i.e., 3 g powder/100 mL water), then immersed with a neutral precise filtration filter paper of 5 mm diameter for about 10 seconds, then placed into a Kirby-Bauer diffusion detection plate. A Kirby-Bauer diffusion detection plate was placed in a sealed glass cover, and the air was provided into the glass cover at a speed of about 10 liters per minute. The sterilizing capability of the catalyst was measured by the diameter of the zone without bacterial growth around the filter paper. A variety of polyoxometalates were respectively prepared into a water solution with a 3% mass concentration, and pH was controlled to 10. The sterilizing capability was also detected by Kirby-Bauer diffusion detection method in which Staphylococcus aureus was used as the microorganisms, respectively including no oxygen ventilation and oxygen ventilation. When oxygen was ventilated, the condition for oxygen ventilation was the same, the temperature was room temperature (25° C.) and 37° C. […] Potassium polytungstate (K3[PW12O40]) was respectively prepared into water solutions with mass concentration of 0.5%, 1.0%, 2.0%, 3%, 5%, 10%, and 15%, and the pH were controlled to 10. The sterilizing capability was also detected by Kirby-Bauer diffusion detection method in which Staphylococcus aureus was used as the microorganisms, the condition for oxygen ventilation was the same, and the temperature was room temperature (25° C.) and 37° C. […] Potassium polytungstate (K3[PW12O40]) was respectively prepared into water solutions with a concentration of 3% and pH of 6, 7, 8, 8.5, 9, 9.5, 10, 10.5, 11, 11.5, 12. The sterilizing capability was also detected by Kirby-Bauer diffusion detection method in which Staphylococcus aureus was used as the microorganisms, the condition for oxygen ventilation was the same, and the temperature was room temperature (25° C.) and 37° C.

[1] = 3% water solution, pH 10, oxygen ventilation, 25° C.
[2] = 3% water solution, pH 10, oxygen ventilation, 37° C.

Na3[PW12O40]
sterilization effect without oxygen ventilation (diameter, mm) (3% water solution): 3 mm
sterilization effect at 25° C. (diameter, mm) [1]: 19 mm
sterilization effect at 37° C. (diameter, mm) [2]: 18 mm

Potassium polytungstate [K3[PW12O40]]
sterilization effect at 25° C. (diameter, mm) (3% water solution, pH 6, oxygen ventilation, 25° C.): 5 mm
sterilization effect at 37° C. (diameter, mm) (3% water solution, pH 6, oxygen ventilation, 37° C.): 6 mm
sterilization effect at 25° C. (diameter, mm) (3% water solution, pH 7, oxygen ventilation, 25° C.): 6 mm
sterilization effect at 37° C. (diameter, mm) (3% water solution, pH 7, oxygen ventilation, 37° C.): 8 mm
sterilization effect at 25° C. (diameter, mm) (3% water solution, pH 8, oxygen ventilation, 25° C.): 8 mm
sterilization effect at 37° C. (diameter, mm) (3% water solution, pH 8, oxygen ventilation, 37° C.): 11 mm
sterilization effect at 25° C. (diameter, mm) (3% water solution, pH 8.5, oxygen ventilation, 25° C.): 14 mm
sterilization effect at 37° C. (diameter, mm) (3% water solution, pH 8.5, oxygen ventilation, 37° C.): 15 mm
sterilization effect at 25° C. (diameter, mm) (3% water solution, pH 9, oxygen ventilation, 25° C.): 17 mm
sterilization effect at 37° C. (diameter, mm) (3% water solution, pH 9, oxygen ventilation, 37° C.): 18 mm
sterilization effect at 25° C. (diameter, mm) (3% water solution, pH 9.5, oxygen ventilation, 25° C.): 20 mm
sterilization effect at 37° C. (diameter, mm) (3% water solution, pH 9.5, oxygen ventilation, 37° C.): 19 mm
sterilization effect without oxygen ventilation (diameter, mm) (3% water solution): 3 mm
sterilization effect at 25° C. (diameter, mm) [1]: 19 mm
sterilization effect at 25° C. (diameter, mm) (3% water solution, pH 10, oxygen ventilation, 25° C. (pH series)): 19 mm
sterilization effect at 37° C. (diameter, mm) [2]: 19 mm
sterilization effect at 37° C. (diameter, mm) (3% water solution, pH 10, oxygen ventilation, 37° C. (pH series)): 19 mm
sterilization effect at 25° C. (diameter, mm) (3% water solution, pH 10.5, oxygen ventilation, 25° C.): 18 mm
sterilization effect at 37° C. (diameter, mm) (3% water solution, pH 10.5, oxygen ventilation, 37° C.): 19 mm
sterilization effect at 25° C. (diameter, mm) (3% water solution, pH 11, oxygen ventilation, 25° C.): 20 mm
sterilization effect at 37° C. (diameter, mm) (3% water solution, pH 11, oxygen ventilation, 37° C.): 20 mm
sterilization effect at 25° C. (diameter, mm) (3% water solution, pH 11.5, oxygen ventilation, 25° C.): 20 mm
sterilization effect at 37° C. (diameter, mm) (3% water solution, pH 11.5, oxygen ventilation, 37° C.): 20 mm
sterilization effect at 25° C. (diameter, mm) (3% water solution, pH 12, oxygen ventilation, 25° C.): 20 mm
sterilization effect at 37° C. (diameter, mm) (3% water solution, pH 12, oxygen ventilation, 37° C.): 20 mm
sterilization effect at 25° C. (diameter, mm) (concentration 0.5%, pH 10, oxygen ventilation, 25° C.): 8 mm
sterilization effect at 37° C. (diameter, mm) (concentration 0.5%, pH 10, oxygen ventilation, 37° C.): 9 mm
sterilization effect at 25° C. (diameter, mm) (concentration 1.0%, pH 10, oxygen ventilation, 25° C.): 11 mm
sterilization effect at 37° C. (diameter, mm) (concentration 1.0%, pH 10, oxygen ventilation, 37° C.): 10 mm
sterilization effect at 25° C. (diameter, mm) (concentration 2.0%, pH 10, oxygen ventilation, 25° C.): 14 mm
sterilization effect at 37° C. (diameter, mm) (concentration 2.0%, pH 10, oxygen ventilation, 37° C.): 16 mm
sterilization effect at 25° C. (diameter, mm) (concentration 3.0%, pH 10, oxygen ventilation, 25° C.): 16 mm
sterilization effect at 37° C. (diameter, mm) (concentration 3.0%, pH 10, oxygen ventilation, 37° C.): 18 mm
sterilization effect at 25° C. (diameter, mm) (concentration 5%, pH 10, oxygen ventilation, 25° C.): 18 mm
sterilization effect at 37° C. (diameter, mm) (concentration 5%, pH 10, oxygen ventilation, 37° C.): 19 mm
sterilization effect at 25° C. (diameter, mm) (concentration 10%, pH 10, oxygen ventilation, 25° C.): 20 mm
sterilization effect at 37° C. (diameter, mm) (concentration 10%, pH 10, oxygen ventilation, 37° C.): 20 mm
sterilization effect at 25° C. (diameter, mm) (concentration 15%, pH 10, oxygen ventilation, 25° C.): 19 mm
sterilization effect at 37° C. (diameter, mm) (concentration 15%, pH 10, oxygen ventilation, 37° C.): 18 mm
